Source: publication doi:10.1101/2022.01.05.475095v1 (biorxiv, 2022)

Each compound was assayed against T1, SARS-CoV-2 Mpro (Severe acute respiratory syndrome coronavirus 2, UniProt P0DTD1) (assay: biochemical). Conditions: read-out: % inhibition at 10 μM.

CC(=O)c1ccc(N(Cc2cn(S(=O)(=O)c3ccc(C)cc3)nn2)C2=CC(=O)c3ccccc3C2=O)cc1 [compound 318, 318] was tested, and the inhibition at 10 µM was 45 ± 13%.

These compounds were tested against T1, SARS-CoV-2 Mpro (assay: fluorogenic quenched peptide cleavage assay). Conditions: not given.
Format: biochemical

Point of comparison: CC(=O)NC1=CC(=O)c2c(cccc2[N+](=O)[O-])C1=O [compound 415, 415], IC50 5000 ± 200 nM. Against it:
- O=C1C(Sc2ccccc2)=C(Sc2ccccc2)C(=O)c2ccccc21 [compound 379, 379] — 7.9-fold lower, 630 ± 40 nM
- COc1ccc(SC2=C(Sc3ccc(OC)cc3)C(=O)c3ccccc3C2=O)cc1 [compound 382, 382] — 12-fold lower, 410 ± 20 nM

The compounds below were run against T1, SARS-CoV-2 Mpro (assay: biochemical). Conditions: read-out: Mpro % inhibition at 10 µM.

Point of comparison: COc1ccc(SC2=C(Sc3ccc(OC)cc3)C(=O)c3ccccc3C2=O)cc1 [compound 382], inhibition at 10 µM 100%. Against it:
- CC1(C)OC2=C(C(=O)C(=O)c3ccccc32)C1n1cc(-c2ccccc2)nn1 (stereo not shown) [compound 159] — lower, 35 ± 1%
- CC1(C)OC2=C(C(=O)C(=O)c3ccccc32)C1n1cc(CNC2=CC(=O)c3ccccc3C2=O)nn1 (stereo not shown) [compound 189] — lower, 25 ± 2%
- CC1(C)OC2=C(C(=O)C(=O)c3ccccc32)C1n1cc(CNC2=C(Br)C(=O)c3ccccc3C2=O)nn1 (stereo not shown) [compound 191] — lower, 55 ± 3%
- Cc1ccc(S(=O)(=O)n2cc(CN(C3=CC(=O)c4ccccc4C3=O)c3ccc(Br)cc3)nn2)cc1 [compound 314] — lower, 36 ± 2%
- Cc1ccc(S(=O)(=O)n2cc(CNC3=CC(=O)c4ccccc4C3=O)nn2)cc1 [compound 319] — lower, 5 ± 2%
- Cc1ccc(S(=O)(=O)n2cc(CNC3=C(Cl)C(=O)c4ccccc4C3=O)nn2)cc1 [compound 320, 320] — lower, 11 ± 6%
- Cc1ccc(S(=O)(=O)n2cc(CNC3=C(Br)C(=O)c4ccccc4C3=O)nn2)cc1 [compound 321, 321] — lower, 40 ± 8%
- O=C1C(Sc2ccccc2)=C(Sc2ccccc2)C(=O)c2ccccc21 [compound 379] — the same, 100%
- O=C1C(Sc2ccc(Br)cc2)=C(Sc2ccc(Br)cc2)C(=O)c2ccccc21 [compound 380, 380] — lower, 12 ± 3%
- CC(=O)NC1=CC(=O)c2cccc(O)c2C1=O [compound 414, 414] — lower, 29 ± 2%
- CC(=O)NC1=CC(=O)c2c(cccc2[N+](=O)[O-])C1=O [compound 415, 415] — the same, 100%
- Cc1ccc(S(=O)(=O)c2cccc3c2C(=O)c2ccccc2C3=O)cc1 [compound 477, 477] — lower, 5 ± 2%
- CC1(C)OC2=C(CC1Br)C(=O)C(=NNc1ccccc1)c1ccccc12 (stereo not shown) [compound 666, 666] — lower, 5 ± 5%
- CC1(C)CC2=C(O1)c1ccccc1C(=NNc1ccccc1)C2=O [compound 673, 673] — lower, 8 ± 3%
